Measurements: article PMC7415810, “A novel nucleolin-binding peptide for Cancer Theranostics” (Theranostics, 2020)

Key:
[1] = system: MCF-7; settings: read-out: IC50, MCF-7; 48 h treatment, WST-1
Method: (§1) Cancer and normal cells (1 × 10^4 cells/well) were seeded in 96-well plates, incubated for 24 h, and then treated with increasing concentrations of AGM-330, PTX, and AGM-330-PTX for 48 h. Cell viability was assessed by the CellVia WST-1 assay (Young In Frontier) according to the manufacturer's instructions. The numbers of viable cells were measured at a wavelength of 450 nm using a VersaMax ELISA plate reader (Molecular Devices, San Jose, CA, USA).
(§2) Figure S3. A-C, Cancer and normal cells (1 × 10^4 cells/well) were seeded in 96-well plates. After 24 h of incuba-tion, the cells were treated with an increasing concentration of dimeric or tetrameric AGM-330 for 48 h. The viability of cells grown in 0 % FBS (A), 5 % FBS (B) or 10 % FBS (C) was assessed by a CellVia WST-1 assay (Young In Frontier, Seoul, Korea) according to the manufacturer’s instruction. The numbers of viable cells were measured at a wavelength of 450 nm using an VersaMax ELISA plate reader (Molecular Devices). D, E, Binding specificity of AGM-330. A whole-cell binding assay was performed to determine the cell binding of AGM-330 in 1 % FBS (D) or 5 % FBS (E). Scale bar, 200 μm.

[2] = system: HT-29; settings: read-out: IC50, HT-29; 48 h treatment, WST-1
Method: as §1, §2

[3] = system: HCT-116; settings: read-out: IC50, HCT-116; 48 h treatment, WST-1
Method: as §1, §2

[4] = system: CCD-18Co; settings: read-out: IC50, CCD-18Co; 48 h treatment, WST-1
Method: as §1, §2

[5] = system: MDA-MB-231; experiment: Whole-cell binding assay on OBOC peptide beads; type: cell-based, human; settings: peptide on TentaGel beads incubated with cells at 10^6 cells/ml; repeated 3 times
Method: The beads were washed extensively with double-distilled water and phosphate-buffered saline (PBS; Welgene Inc., Korea) before screening. Cancer and normal cells were detached from culture dishes with trypsin/EDTA (Gibco), washed with their corresponding culture medium, resuspended at 10^6 cells/ml, and incubated with OBOC beads in Petri dishes in a humidified CO2 incubator at 37 °C with shaking (60 rpm). Beads bound by cells appeared under a microscope as rosettes in which a central bead was covered by one or more layers of cells. The positive beads were picked with a pipette under an inverted microscope, treated with guanidine-HCL (8 M, 20 min) to remove cells and proteins on the bead surface, and subjected to a second round of screening with normal breast epithelial cells to eliminate false positive binding.
Note : Semiquantitative relative binding activity: “++++” very strong binding (>40 cells per bead), “+++” strong binding (30
-20 cells per bead), “+ +” moderate binding (20 - 10 cells per bead), “+” weak binding (5-10 cells per bead), “-” no binding. […]
Figure S1. A, Steps performed in peptide library synthesis and screening. 1, The split-mix synthesis method was performed to construct the combinatorial OBOC libraries. […]
sized. 3, OBOC libraries were incubated with cancer cells in a CO2 incubator. 4, Beads carrying ligands with an affinity for cell surface molecules became covered with cells. 5, The positive beads were picked with a pipette under an inverted microscope. 6, The peptide sequences for positive beads were determined by Edman microse - […]
peptide libraries. B, The binding specificities of the peptides against cancer cell and normal cells were deter- […]
breast and colorectal cancer cells and normal breast and colorectal cells were re-suspended at 10^6 cells/ml and incubated with beads. All experiments were repeated 3 times. Scale bar, 200 μm.

SMILES: CSCC[C@H](NC(=O)[C@H](C)NC(=O)CNC(=O)[C@H](Cc1c[nH]cn1)NC(=O)[C@@H](N)CCCNC(=N)N)C(=O)N[C@H](C(=O)N[C@@H](Cc1ccc(O)cc1)C(=O)N[C@@H](CC(C)C)C(=O)N[C@@H](CCCCN)C(=O)NCCOCCOCCOCCOCCOCCOCCOCCOCCOCCOCCOCCOCCC(=O)NCCCC[C@H](NC(=O)CCOCCOCCOCCOCCOCCOCCOCCOCCOCCOCCOCCOCCNC(=O)[C@H](CCCCN)NC(=O)[C@H](CC(C)C)NC(=O)[C@H](Cc1ccc(O)cc1)NC(=O)[C@@H](NC(=O)[C@H](CCSC)NC(=O)[C@H](C)NC(=O)CNC(=O)[C@H](Cc1c[nH]cn1)NC(=O)[C@@H](N)CCCNC(=N)N)C(C)C)C(=O)NCCCC[C@H](NC(=O)[C@H](CCCCNC(=O)CCOCCOCCOCCOCCOCCOCCOCCOCCOCCOCCOCCOCCNC(=O)[C@H](CCCCN)NC(=O)[C@H](CC(C)C)NC(=O)[C@H](Cc1ccc(O)cc1)NC(=O)[C@@H](NC(=O)[C@H](CCSC)NC(=O)[C@H](C)NC(=O)CNC(=O)[C@H](Cc1c[nH]cn1)NC(=O)[C@@H](N)CCCNC(=N)N)C(C)C)NC(=O)CCOCCOCCOCCOCCOCCOCCOCCOCCOCCOCCOCCOCCNC(=O)[C@H](CCCCN)NC(=O)[C@H](CC(C)C)NC(=O)[C@H](Cc1ccc(O)cc1)NC(=O)[C@@H](NC(=O)[C@H](CCSC)NC(=O)[C@H](C)NC(=O)CNC(=O)[C@H](Cc1c[nH]cn1)NC(=O)[C@@H](N)CCCNC(=N)N)C(C)C)C(=O)N[C@@H](CS)C(=O)O)C(C)C [AGM-330]
- IC50 [1]: > 100 µM
- IC50 [2]: > 100 µM
- IC50 [3]: > 100 µM
- IC50 [4]: > 100 µM
- Semiquantitative relative binding activity, MDA-MB-231 [5]: ++++ (very strong binding (>40 cells per bead))
